Measurements: ChEMBL document CHEMBL6120981, “Optimisation of a novel series of ENaC inhibitors, leading to the selection of the long-acting inhaled clinical candidate ETD001, a potential new treatment for cystic fibrosis” (Eur J Med Chem, 2025)
Activity calls are given as the source filed them. The rule behind the calls is not given here.

Assays:
[1] = Lipophilicity, log D of the compound; assay type: physicochemical; conditions: octanol/water
[2] = Inhibition of ENaC in human Primary bronchial epithelial cell; assay type: cell-based
[3] = test system: Ovis aries; assay: (§1) Mucociliary clearance activity in sheep mucociliary clearance model assessed as effective dose administered as inhalation pre-administered for 4 to 6 hrs followed by aerosolized technetium-labeled sulfur colloid (99mTc-Sc , 20 mCi) addition by Scintigraphic imaging based analysis; assay type: functional; conditions: time 4-6 hrs
[4] = Drug uptake in male Sprague-Dawley rat lung at 0.3 mg/kg, IT measured upto 6 hrs by LC-MS/MS analysis; assay type: ADME, organism-based; conditions: in vivo, other
[5] = Drug uptake in male Sprague-Dawley rat Bronchoalveolar lavage assessed as fold decrease BAL level at 0.3 mg/kg, IT measured upto 6 hrs by LC-MS/MS analysis; assay type: ADME, organism-based; conditions: in vivo, other
[6] = test system: Ovis aries; assay: as §1, with “assessed as improvement in lung residence time” for “effective dose”; assay type: functional, organism-based; conditions: time 4-6 hrs
[7] = test system: Cytochrome P450; assay: Inhibition of CYP450 (unknown origin); assay type: ADME, protein assay; conditions: human
[8] = Plasma protein binding in rat; assay type: ADME, cell-free; conditions: read-out: PPB (converted)
[9] = Drug uptake in male Sprague-Dawley rat Bronchoalveolar lavage assessed as decrease BAL level at 0.3 mg/kg, IT measured after 6 hrs by LC-MS/MS analysis relative to control; assay type: ADME, organism-based; conditions: in vivo, other
[10] = target: Voltage-gated inwardly rectifying potassium channel KCNH2 (Homo sapiens, UniProt Q12809); assay: Inhibition of human ERG at 30 uM by automated patch clamp method; assay type: toxicity
[11] = Plasma protein binding in dog; assay type: ADME, cell-free, Canis lupus familiaris; conditions: read-out: PPB (converted)
[12] = target: Voltage-dependent L-type calcium channel subunit alpha-1C (Homo sapiens, UniProt Q13936); assay: Inhibition of Cav1.2 (unknown origin) at 10 uM by automated patch clamp method
[13] = target: Sodium channel protein type 5 subunit alpha (Homo sapiens, UniProt Q14524); assay: Inhibition of Nav1.5 (unknown origin) 10 uM by automated patch clamp method
[14] = target: Potassium voltage-gated channel subfamily A member 5 (Homo sapiens) (UniProt P22460); assay: Inhibition of Kv1.5 (unknown origin) at 10 uM by automated patch clamp method
[15] = Plasma protein binding in human; assay type: ADME, cell-free; conditions: read-out: PPB (converted)
[16] = Mutagenicity in Salmonella typhimurium strains by Ames test; assay type: toxicity; conditions: salmonella enterica subsp. enterica serovar typhimurium

Voltage-gated inwardly rectifying potassium channel KCNH2, sequence (Q12809 whole entry): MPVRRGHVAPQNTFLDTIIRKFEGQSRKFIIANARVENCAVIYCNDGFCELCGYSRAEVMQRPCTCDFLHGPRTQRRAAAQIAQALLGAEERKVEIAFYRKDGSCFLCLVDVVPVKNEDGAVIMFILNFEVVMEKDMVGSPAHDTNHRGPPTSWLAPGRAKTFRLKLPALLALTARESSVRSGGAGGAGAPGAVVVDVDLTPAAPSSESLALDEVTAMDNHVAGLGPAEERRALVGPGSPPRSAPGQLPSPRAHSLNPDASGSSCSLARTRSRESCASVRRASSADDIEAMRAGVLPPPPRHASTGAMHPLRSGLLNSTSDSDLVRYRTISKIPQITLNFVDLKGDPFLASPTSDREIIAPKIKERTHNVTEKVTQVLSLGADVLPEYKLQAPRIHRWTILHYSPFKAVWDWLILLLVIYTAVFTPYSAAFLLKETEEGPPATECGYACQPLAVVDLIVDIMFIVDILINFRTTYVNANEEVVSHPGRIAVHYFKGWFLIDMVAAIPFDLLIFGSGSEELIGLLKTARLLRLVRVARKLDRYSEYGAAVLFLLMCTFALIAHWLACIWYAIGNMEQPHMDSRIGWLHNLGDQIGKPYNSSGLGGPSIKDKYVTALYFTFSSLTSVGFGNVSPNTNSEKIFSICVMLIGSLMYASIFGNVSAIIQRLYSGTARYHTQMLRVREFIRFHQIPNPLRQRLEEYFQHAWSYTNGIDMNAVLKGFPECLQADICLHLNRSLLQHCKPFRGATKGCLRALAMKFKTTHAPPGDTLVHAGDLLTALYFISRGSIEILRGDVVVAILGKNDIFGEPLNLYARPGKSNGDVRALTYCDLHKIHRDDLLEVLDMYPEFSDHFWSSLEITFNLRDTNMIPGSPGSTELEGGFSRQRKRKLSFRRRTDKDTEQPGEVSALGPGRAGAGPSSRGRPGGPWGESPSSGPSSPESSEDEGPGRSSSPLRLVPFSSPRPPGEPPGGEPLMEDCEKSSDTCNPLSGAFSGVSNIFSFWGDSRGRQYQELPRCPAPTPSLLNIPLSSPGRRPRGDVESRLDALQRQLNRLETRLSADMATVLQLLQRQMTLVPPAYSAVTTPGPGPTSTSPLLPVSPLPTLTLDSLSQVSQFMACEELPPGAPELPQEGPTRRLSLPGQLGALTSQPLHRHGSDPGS
Potassium voltage-gated channel subfamily A member 5 (Homo sapiens), sequence (P22460 whole entry): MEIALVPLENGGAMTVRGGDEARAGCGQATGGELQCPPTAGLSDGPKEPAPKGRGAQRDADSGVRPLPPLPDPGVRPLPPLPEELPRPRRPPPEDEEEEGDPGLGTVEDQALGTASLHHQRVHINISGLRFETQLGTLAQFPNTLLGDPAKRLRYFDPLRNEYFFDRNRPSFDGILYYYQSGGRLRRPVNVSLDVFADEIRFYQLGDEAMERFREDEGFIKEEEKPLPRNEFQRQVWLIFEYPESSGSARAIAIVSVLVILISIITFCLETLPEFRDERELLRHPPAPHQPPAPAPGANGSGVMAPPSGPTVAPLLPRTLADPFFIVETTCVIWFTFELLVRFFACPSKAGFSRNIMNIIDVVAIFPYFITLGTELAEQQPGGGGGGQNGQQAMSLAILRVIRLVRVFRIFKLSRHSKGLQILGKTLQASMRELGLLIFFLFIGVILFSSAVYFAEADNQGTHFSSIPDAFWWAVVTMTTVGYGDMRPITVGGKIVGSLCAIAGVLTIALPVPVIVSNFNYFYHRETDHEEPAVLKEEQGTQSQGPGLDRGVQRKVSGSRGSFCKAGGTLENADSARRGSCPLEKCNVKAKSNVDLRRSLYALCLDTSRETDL
Voltage-dependent L-type calcium channel subunit alpha-1C, sequence (Q13936 whole entry): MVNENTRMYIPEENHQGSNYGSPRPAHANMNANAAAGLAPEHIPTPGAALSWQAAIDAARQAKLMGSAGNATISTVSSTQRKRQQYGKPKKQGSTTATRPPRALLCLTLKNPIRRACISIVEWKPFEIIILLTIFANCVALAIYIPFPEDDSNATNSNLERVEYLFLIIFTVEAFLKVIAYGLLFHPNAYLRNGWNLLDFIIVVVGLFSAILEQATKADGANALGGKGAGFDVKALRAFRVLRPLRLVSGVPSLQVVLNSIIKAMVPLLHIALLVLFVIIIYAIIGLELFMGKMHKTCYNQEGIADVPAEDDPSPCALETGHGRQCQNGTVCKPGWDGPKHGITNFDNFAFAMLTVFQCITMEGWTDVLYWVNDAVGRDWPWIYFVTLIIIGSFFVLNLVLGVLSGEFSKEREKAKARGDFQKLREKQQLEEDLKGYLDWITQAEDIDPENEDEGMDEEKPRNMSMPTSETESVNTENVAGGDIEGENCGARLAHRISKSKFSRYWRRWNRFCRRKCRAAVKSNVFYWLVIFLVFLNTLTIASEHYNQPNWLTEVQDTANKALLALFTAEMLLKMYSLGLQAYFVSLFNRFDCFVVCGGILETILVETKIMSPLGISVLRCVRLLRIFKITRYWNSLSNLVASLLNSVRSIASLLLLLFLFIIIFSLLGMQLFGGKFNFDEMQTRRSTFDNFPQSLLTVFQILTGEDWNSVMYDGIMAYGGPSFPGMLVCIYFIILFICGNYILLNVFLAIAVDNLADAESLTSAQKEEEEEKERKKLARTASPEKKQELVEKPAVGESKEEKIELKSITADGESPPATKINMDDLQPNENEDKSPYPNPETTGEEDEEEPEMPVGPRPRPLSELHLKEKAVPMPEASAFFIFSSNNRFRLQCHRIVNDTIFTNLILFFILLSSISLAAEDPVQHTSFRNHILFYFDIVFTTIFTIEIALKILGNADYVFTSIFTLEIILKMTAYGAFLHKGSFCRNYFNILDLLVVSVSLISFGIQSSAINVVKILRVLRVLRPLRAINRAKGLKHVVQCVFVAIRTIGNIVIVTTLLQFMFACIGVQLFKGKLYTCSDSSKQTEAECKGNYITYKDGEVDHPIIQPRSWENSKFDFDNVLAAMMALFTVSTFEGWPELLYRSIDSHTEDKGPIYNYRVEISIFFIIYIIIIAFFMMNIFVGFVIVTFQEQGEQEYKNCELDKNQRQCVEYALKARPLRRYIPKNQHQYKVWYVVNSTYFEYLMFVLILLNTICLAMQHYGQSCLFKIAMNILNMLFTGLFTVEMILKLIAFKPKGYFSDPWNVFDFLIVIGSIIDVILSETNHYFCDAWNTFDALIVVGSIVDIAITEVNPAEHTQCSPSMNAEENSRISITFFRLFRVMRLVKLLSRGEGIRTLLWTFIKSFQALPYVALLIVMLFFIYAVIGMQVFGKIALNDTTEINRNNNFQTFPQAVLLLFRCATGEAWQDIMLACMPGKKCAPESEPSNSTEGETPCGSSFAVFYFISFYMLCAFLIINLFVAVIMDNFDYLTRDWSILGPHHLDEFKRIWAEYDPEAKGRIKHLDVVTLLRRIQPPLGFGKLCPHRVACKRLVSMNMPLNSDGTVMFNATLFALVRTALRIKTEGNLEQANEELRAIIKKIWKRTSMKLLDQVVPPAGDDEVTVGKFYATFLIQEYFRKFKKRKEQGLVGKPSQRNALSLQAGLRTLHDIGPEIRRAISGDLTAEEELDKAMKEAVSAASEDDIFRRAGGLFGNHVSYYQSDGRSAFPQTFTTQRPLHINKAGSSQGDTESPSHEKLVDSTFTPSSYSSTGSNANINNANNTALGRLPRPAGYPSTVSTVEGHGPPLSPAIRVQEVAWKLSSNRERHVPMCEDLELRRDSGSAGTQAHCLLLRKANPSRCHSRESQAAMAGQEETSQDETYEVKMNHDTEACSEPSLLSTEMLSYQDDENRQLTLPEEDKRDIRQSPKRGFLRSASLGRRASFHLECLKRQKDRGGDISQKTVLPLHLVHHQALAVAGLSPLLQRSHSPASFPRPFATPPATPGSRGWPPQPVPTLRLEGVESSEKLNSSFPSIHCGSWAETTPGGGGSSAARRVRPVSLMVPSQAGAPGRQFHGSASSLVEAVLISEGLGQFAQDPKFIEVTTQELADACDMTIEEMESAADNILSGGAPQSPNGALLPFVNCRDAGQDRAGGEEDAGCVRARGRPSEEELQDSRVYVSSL

SMILES | logD [1] | IC50 [2] | ED100 [3] | also measured
CCn1c(CNC(=O)c2nc3cc[nH]c3nc2N)[n+](CC)c2ccc(C(=O)NCCCN)cc21 | 0 | 15 nM |  | 
CCn1c(CNC(=O)c2nc3cc[nH]c3nc2N)[n+](CC)c2ccc(OCCN)cc21 | 1 | 14 nM |  | 
CCn1c(CNC(=O)c2nc3cc[nH]c3nc2N)[n+](CC)c2ccc(OCCN(C[C@H](O)[C@@H](O)[C@H](O)[C@H](O)CO)C[C@H](O)[C@@H](O)[C@H](O)[C@H](O)CO)cc21 |  | 51 nM |  | 
CCn1c(CNC(=O)c2nc3cc[nH]c3nc2N)[n+](CC)c2ccc(C(=O)NCCN3CCC(N)CC3)cc21 |  | 10 nM |  | 
CCn1c(CNC(=O)c2nc3cc[nH]c3nc2N)[n+](CC)c2ccc(C(=O)N3CCC(N)CC3)cc21.Cl.[I-] | 0.6 | 11 nM | 0.025 mg/kg | Activity [6]: Active
CCn1c(CNC(=O)c2nc3cc[nH]c3nc2N)[n+](CC)c2ccc(C(=O)NCCN3CCC(N(C[C@H](O)[C@@H](O)[C@H](O)[C@H](O)CO)C[C@H](O)[C@@H](O)[C@H](O)[C@H](O)CO)CC3)cc21.O=C(O)C(F)(F)F.O=C([O-])C(F)(F)F |  | 38 nM | 0.025 mg/kg | 
CCn1c(CNC(=O)c2nc3ccn(C)c3nc2N)[n+](C)c2ccc(OC)cc21 | 0.8 | > 7700 nM |  | 
CCn1c(CNC(=O)c2nc3cc[nH]c3nc2N)[n+](CC)c2ccc(OCCCN(C[C@H](O)[C@@H](O)[C@H](O)[C@H](O)CO)C[C@H](O)[C@@H](O)[C@H](O)[C@H](O)CO)cc21.O=C(O)C(F)(F)F.O=C([O-])C(F)(F)F | 1 | 22 nM | 0.019 mg/kg | 
CCc1cnc(N)c(C(=O)NCc2n(CC)c3cc(OC)ccc3[n+]2C)n1 | 0.9 | 224 nM |  | 
CCn1c(CNC(=O)c2nc3cc[nH]c3nc2N)[n+](CC)c2ccc(C(=O)N3CCC(N(C[C@H](O)[C@@H](O)[C@H](O)[C@H](O)CO)C[C@H](O)[C@@H](O)[C@H](O)[C@H](O)CO)CC3)cc21.O=C(O)C(F)(F)F.O=C([O-])C(F)(F)F | 2.8 | 57 nM | 0.009 mg/kg | inhibition (INH) [7]: Not_active; fraction unbound [8]: 0.9; Drug uptake [9]: 13%; inhibition (INH) [10]: Not_active; fraction unbound [11]: 0.9; inhibition (INH) [12]: Not_active; inhibition (INH) [13]: Not_active; fold change (FC) [5]: 3; inhibition [14]: inactive; fraction unbound [15]: 0.9; Activity [16]: Non-toxic
CCn1c(CNC(=O)c2nc3cc[nH]c3nc2N)[n+](CC)c2ccc(C(=O)NCCCN(C[C@H](O)[C@@H](O)[C@H](O)[C@H](O)CO)C[C@H](O)[C@@H](O)[C@H](O)[C@H](O)CO)cc21.O=C(O)C(F)(F)F.O=C([O-])C(F)(F)F | 1 | 18 nM | 0.026 mg/kg | 

Stronger by IC50 [2], values ahead:

logD [1] | IC50 [2] | SMILES | ED100 [3] | also measured
< 1 | 4 nM | CCn1c(CNC(=O)c2nc(C)cnc2N)[n+](C)c2ccc(OC)cc21 |  | 
0.8 | 3 nM | CCn1c(CNC(=O)c2nc(Br)cnc2N)[n+](C)c2ccc(OC)cc21.[I-] | > 0.101 mg/kg | Drug uptake [4]: Not_active; fold change (FC) [5]: 200
0.9 | 2.5 nM | CCn1c(CNC(=O)c2nc3cc[nH]c3nc2N)[n+](CC)c2ccc(OC)cc21 |  | 
1 | 7.1 nM | CCn1c(CNC(=O)c2nc3cc[nH]c3nc2N)[n+](CC)c2ccc(C(=O)NC3CCN(C[C@H](O)[C@@H](O)[C@H](O)[C@H](O)CO)CC3)cc21.O=C(O)C(F)(F)F.O=C([O-])C(F)(F)F | 0.031 mg/kg | 
0.9 | 2 nM | CCn1c(CNC(=O)c2nc(Cl)cnc2N)[n+](C)c2ccc(OC)cc21 |  | 
 | 2.5 nM | CCn1c(CNC(=O)c2nc3cc[nH]c3nc2N)[n+](CC)c2ccc(OCCNC(=N)N)cc21 |  | 
1 | 7.7 nM | CCn1c(CNC(=O)c2nc3cc[nH]c3nc2N)[n+](C)c2ccc(OC)cc21.O=C[O-] | 0.158 mg/kg | Activity [6]: Active; Drug uptake [4]: Active; fold change (FC) [5]: 50
 | 7.2 nM | CCn1c(CNC(=O)c2nc3cc[nH]c3nc2N)[n+](CC)c2ccc(C(=O)NC3CCNCC3)cc21 |  | 
1.5 | 7 nM | CCn1c(CNC(=O)c2nc3cc[nH]c3nc2N)[n+](CC)c2ccc(OCCCN)cc21 |  | 
